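Each compound was tested at five concentrations against cells in 96-well plates for 48 hours. GI50 marks 50% less growth. TGI: total growth inhibition.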 Where a SMILES comes first, the peptide text is derived from it. The star is where a group is joined. Boc = CC(C)(C)OC(=O)*
Columns and labels:
Experiment in all cases: inhibition of tumour cell growth, NCI panel, 48 h
[1] = test system: EKVX NSCLC
[2] = test system: NCI-H460 lung
[3] = test system: SK-MEL-5 melanoma
[4] = test system: MCF7 breast
[5] = test system: OVCAR-4 ovarian
[6] = test system: UACC-257 melanoma
[7] = test system: ACHN renal
[8] = test system: NCI-H23 lung
[9] = test system: PC-3 prostate
[10] = test system: SK-OV-3 ovarian
[11] = test system: SNB-19 CNS
[12] = test system: MOLT-4 leukemia
[13] = test system: A498 renal

| SMILES | TGI [1] | TGI [2] | TGI [3] | TGI [4] | TGI [5] | TGI [6] | TGI [7] | TGI [8] | TGI [9] | TGI [10] | TGI [11] | TGI [12] | TGI [13] | GI50 [5] | GI50 [7] | GI50 [8] | GI50 [12] |
| --- | --- | --- | --- | --- | --- | --- | --- | --- | --- | --- | --- | --- | --- | --- | --- | --- | --- |
| S=C1CC(c2ccc(Cl)cc2)Sc2ccccc2N1 (configuration not stated) | > 100 µM | > 100 µM | > 100 µM | > 100 µM | > 100 µM | > 100 µM | > 100 µM | > 100 µM | > 100 µM | 56.9 µM | 94 µM | > 10 µM |  |  |  |  |  |
| Cc1nc2ccccc2n1CCc1nc2ccccc2s1 | > 100 µM | > 100 µM | 23.6 µM | > 100 µM | > 100 µM | > 100 µM | > 100 µM | > 100 µM | > 100 µM | > 100 µM | > 100 µM | 53.6 µM | > 100 µM |  |  |  |  |
| COc1ccc(CNc2nc3ccccc3nc2-c2cccs2)cc1 | > 100 µM | > 100 µM | > 100 µM | > 100 µM | > 100 µM | > 100 µM | > 100 µM | > 100 µM |  | > 100 µM |  | 45.4 µM | > 100 µM |  |  |  |  |
| O=c1[nH]cnc2c1ncn2[C@H]1CO[C@@H](CO)[C@@H]1O | > 100 µM | > 100 µM | > 100 µM | > 100 µM | > 100 µM | > 100 µM | > 100 µM | > 100 µM | > 100 µM | > 100 µM |  | > 100 µM | > 100 µM |  |  |  |  |
| NS(=O)(=O)c1ccc(/C=C/c2cccc(O)c2)cc1 | > 100 µM | > 100 µM | 48.4 µM | > 100 µM | > 100 µM | > 100 µM | 99.6 µM | > 100 µM | > 100 µM | > 100 µM | > 100 µM | > 100 µM | > 100 µM | 27.8 µM | 25.8 µM | 46.1 µM | 20 µM |
| O=C1CC(c2cccc(Cl)c2)n2cccc21 (configuration not stated) |  |  |  | > 100 µM | > 100 µM | > 100 µM | > 100 µM | > 100 µM | > 100 µM | > 100 µM | > 100 µM | > 100 µM | > 100 µM |  |  |  |  |
| COc1cc2c(cc1OCCCC(=O)Nc1cc(C(=O)Nc3cc(C(=O)NCCCN(C)C)n(C)n3)n(C)n1)N=CC1CCCN1C2=O (configuration not stated) | > 100 µM | > 100 µM | 30.1 µM | 29.5 µM | 26.5 µM | 35.2 µM | 29.7 µM | 39.1 µM | 99.3 µM | > 100 µM | 34.2 µM | 18.9 µM | 59.2 µM |  |  |  |  |
| CC(=O)Nc1ccc(Nc2nc(=O)[nH]c(=O)[nH]2)cc1 | > 100 µM | > 100 µM | > 100 µM | > 100 µM | > 100 µM | > 100 µM | > 100 µM | > 100 µM | > 100 µM | > 100 µM | > 100 µM |  | > 100 µM |  |  |  |  |
| CN(C)CCOc1ccc(-c2c(Oc3ccc(Cl)cc3)c(=O)oc3ccccc23)cc1 | 37.6 µM | 27.4 µM | 4.55 µM | > 28.3 µM | 28.1 µM |  | > 48.5 µM | 34.8 µM | 30.1 µM | 65.7 µM | > 46 µM | > 41.8 µM | 43 µM |  |  |  |  |
| CC1CC[C@]2(C(=O)O)CCC3(C)C(=C2[C@H]1C)C=CC1[C@@]2(C)CC[C@H](O)C(C)(C)C2CC[C@]13C (some centres not stated) | > 100 µM | > 100 µM | 56.6 µM | > 100 µM | > 100 µM | > 100 µM | 48.2 µM | > 100 µM | 80.1 µM | 45.5 µM | > 100 µM | > 100 µM |  |  |  |  |  |
| OC1CN=C2c3ccccc3C(O)(c3ccc(Cl)cc3)N2C1 (configuration not stated) | > 100 µM | > 100 µM |  | > 100 µM | > 100 µM |  | > 100 µM | > 100 µM | > 100 µM | > 100 µM | > 100 µM | > 100 µM |  |  |  |  |  |
| O=C(c1ccco1)N(C(=S)N1CCN(c2ccccc2)CC1)c1ccccc1 |  | > 100 µM | > 100 µM |  | > 100 µM | > 100 µM | > 100 µM | > 100 µM |  | > 100 µM | > 100 µM | > 100 µM |  |  |  |  |  |
| CC(NC(=O)C(NC(=O)OC(C)(C)C)C(C)C)C(=O)NCC(=O)O (stereo not drawn) (Boc-Val-Ala-Gly-OH; configuration not given here) | > 100 µM | > 100 µM | > 100 µM |  |  | > 100 µM | > 100 µM | > 100 µM | > 100 µM | > 100 µM | > 100 µM | > 100 µM |  |  |  |  |  |
| COc1cc(C(C#N)NNC(=O)c2ccccc2O)ccc1O (configuration not stated) |  | > 100 µM | > 100 µM |  | > 100 µM | 92.9 µM | > 100 µM | 10.4 µM |  | > 100 µM |  | > 100 µM |  |  |  |  |  |
| O=S1(=O)c2ccccc2N2CCCc3cc(Cl)cc1c32 | > 100 µM | > 100 µM | > 100 µM | > 100 µM | > 100 µM | > 100 µM | > 100 µM |  | > 100 µM | > 100 µM | > 100 µM | > 100 µM | > 100 µM |  |  |  |  |
| O=C1CSC2(CCN(CCCN3c4ccccc4Sc4ccc(Cl)cc43)CC2)N1 | 22.7 µM | 15.2 µM | 23 µM | 18.5 µM | 23.1 µM | 22 µM | 23.7 µM | 24.1 µM | 16.9 µM | 21.5 µM | 26 µM |  | 31 µM |  |  |  |  |
| Cc1ccc(-n2c(C)nc3c2C(=O)c2ccccc2C3=O)cc1 | > 100 µM | 19.5 µM | > 100 µM |  | > 100 µM | 57 µM | > 100 µM | > 100 µM |  | > 100 µM | > 100 µM | > 100 µM |  |  |  |  |  |
| Cc1nc2c(Br)cc(Br)cc2c(=O)n1-c1ccccc1N | > 100 µM | > 100 µM | 39 µM | > 100 µM | > 100 µM | 86.5 µM | > 100 µM |  | > 100 µM | > 100 µM | > 100 µM | > 100 µM | > 100 µM |  |  |  |  |
